Laboratory results: the METLIN SMRT retention time set (Domingo-Almenara et al. 2019)

Assay: gradient 5% acetonitrile 3 min, to 50% in 2 min, to 85% in 15 min, held 3 min, 100 µL/min
Conditions: column: Zorbax Extend-C18 2.1 x 50 mm; eluents: water / acetonitrile, 0.1% formic acid
Procedure, shortened: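 Each retention time is based on an adduct peak selected computationally and verified by manual inspection. Measurements used HPLC–quadrupole time-of-flight mass spectrometry in positive and negative ionization mode on mixtures of ~100 pure standards. Chromatography ran on a Zorbax Extend-C18 column (2.1 × 50 mm, 1.8 μm) at 100 μL/min with water and acetonitrile, each containing 0.1% formic acid, and dead and dwell volumes of 40 μL and 900 μL.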

| RP-LC retention time | Structure (SMILES) |
| --- | --- |
| 641 s | Cc1cc(N2CCOCC2)n2nc(CN3CCC(Cc4ccccc4)CC3)nc2n1 |
| 1100 s | CCOc1cccc(C2c3[nH]c4ccccc4c3CCN2C(=O)C2CC2)c1 (centres undefined) |
| 791 s | COc1cccc(N2CCN(C(=O)CCc3nnc4c5cc(-c6ccccc6)nn5ccn34)CC2)c1 |
| 745 s | Cc1ccccc1NC(=O)Cn1nc2c(N(C)C3CCCCC3)nccn2c1=O |
| 618 s | CCC(CC)NC(=O)C1(CCO)CCN(Cc2ccccc2)C1 (centres undefined) |
| 587 s | COCCN1CCC(CNS(=O)(=O)c2ccc(OCC(C)C)cc2)CC1 |
| 808 s | CC1CCN(c2cc(-c3noc(C(=O)NCc4ccco4)n3)ccn2)CC1 |
| 990 s | O=C(NCC1CCCO1)C1CCN(c2ncccc2-c2nc(-c3cccc(Cl)c3)no2)CC1 (centres undefined) |
| 680 s | O=C(NCCn1c(=O)n(Cc2ccccc2)c2cccnc21)c1cnccn1 |
| 590 s | COc1ccc2nc(C)cc(SCC(=O)Nc3csc4nc(=O)c(C)nn34)c2c1 |
| 860 s | Brc1cccc(-c2nc3ncccn3c2NCc2ccccc2)c1 |
| 760 s | O=C(CCc1nc2ccccc2s1)N1CCC(c2noc(-c3ccncc3)n2)C1 (centres undefined) |
| 650 s | CC1=C(c2ccccc2)S(=O)(=O)N=C1N1CCC(NC(=O)C2CCOC2)CC1 (centres undefined) |
| 682 s | COCCNC(=O)Cn1nc(C)c2sc(-c3ccccc3)nc2c1=O |
| 802 s | CC1=C(c2ccc(F)cc2)S(=O)(=O)N=C1N1CCCN(C(=O)c2ccccc2)CC1 |
| 1160 s | Cc1cc(SCC(=O)N2CCN(c3ccccc3)CC2)nc(-c2ccc(F)cc2)n1 |
| 553 s | C(#Cc1ccccc1)CN1CCN(c2ccccn2)CC1 |

| RP-LC retention time | Structure (SMILES) |
| --- | --- |
| 650 s | O=C(Cn1cnc2nc(N3CCC(C(=O)NC4CC4)CC3)sc2c1=O)Nc1ccccc1 |
| 674 s | O=C(c1cc(-c2ccc3c(c2)OCO3)nc2ccccc12)N1CCN(c2ccccn2)CC1 |
| 711 s | COc1ccc(C2(C(=O)N3CCCOCCNC(=O)[C@@H]4CCC[C@@H]43)CC2)cc1 |
| 866 s | CCc1ccc(C2=C(C)C(N3CCCN(C(=O)NC(C)CC)CC3)=NS2(=O)=O)cc1 (centres undefined) |
| 619 s | CCOC(=O)N1CCC(NC(=O)CCC2CCN(c3cc(NC4CC4)ncn3)CC2)CC1 |
| 572 s | O=C(Cc1cccc2ccccc12)NCC1CCN(Cc2cccs2)CC1 |
| 611 s | O=C(CCc1nnc2c3cc(-c4ccc(F)cc4)nn3ccn12)N1CCN(c2ccccn2)CC1 |
| 726 s | CC1CCN(S(=O)(=O)c2ccc(-c3nnc(C(=O)NCCN4CCCCCC4)o3)cc2)CC1 |
| 687 s | Cc1nc(S(=O)(=O)N2CCC(C(=O)N3CCN(c4ccccc4)CC3)CC2)cn1C |
| 610 s | O=C(NCC1CCN(c2ncccn2)CC1)Nc1c(F)cccc1F |
| 654 s | CCc1nc(-c2csc(S(=O)(=O)N3CCC(C(=O)NCc4ccccn4)CC3)c2)no1 |
| 616 s | Cn1c(=O)c(-c2ccc(C(=O)NCCCN3CCCC3)cc2)nc2ccccc21 |
| 732 s | Cc1nn(CC(=O)NCc2ccco2)c(=O)c2nn(-c3ccccc3)c(C)c12 |
| 738 s | Cc1ccc(NC(=O)CSc2nccc(N3CCCCCC3)n2)cc1F |
| 700 s | CCOc1ccc(NC(=O)c2cccc(N3CCNC(c4ccccc4)C3)n2)cc1 (centres undefined) |
| 681 s | CCc1nc(-c2csc(S(=O)(=O)N3CCCC(C(=O)NCc4ccccn4)C3)c2)no1 (centres undefined) |

Continued, compound first:

| Structure (SMILES) | RP-LC retention time |
| --- | --- |
| C#C[C@]1(O)CC[C@H]2[C@@H]3CCC4=Cc5oncc5CC4(C)[C@H]3CCC21C (some centres undefined) | 1180 s |
| O=C(O)c1ccccc1C(=O)NCC1COc2ccccc2O1 (centres undefined) | 708 s |
| O=C(Nc1ccc(F)cc1F)N1CCC(N(C(=O)C2CC2)C2CCOCC2)CC1 | 719 s |
| CCc1noc(-c2cc(=O)n(CC(=O)Nc3ccccc3Cl)c3ccccc23)n1 | 987 s |
| O=C(Nc1cnn(-c2ncc(N3CCCCC3)cn2)c1)C1CCCC1 | 807 s |
| CCCc1noc(-c2ccnc(-n3ncc(C(=O)NC(C)C)c3C)c2)n1 | 868 s |
| Cc1ccc(-n2nnnc2-c2cccnc2)cc1 | 649 s |
| Cc1cccc(Cn2ccnc2C(N)=O)c1 | 801 s |
| COc1ccc(NC(=O)C2CCc3sc(C(=O)N(C)C)cc3C2)cc1 (centres undefined) | 663 s |
| O=C(Nc1cc(F)cc(F)c1)C1CCCN(c2ccnc(-c3ccc(F)cc3)n2)C1 (centres undefined) | 761 s |
| CCOC(=O)CNC(=O)N1CCCCCC1c1cccc(C)c1 (centres undefined) | 931 s |
| Cc1nc(-c2ccc(-c3noc(C(C)NC(=O)c4ccco4)n3)cc2)cs1 (centres undefined) | 863 s |
| CSc1ccc(N2C=NS(=O)(=O)c3cccnc32)cc1 | 810 s |
| CCOC(=O)CNC(=O)Nc1ccc2c(c1)oc(=O)n2CC | 659 s |
| CCOC(=O)C1=C(C)NC2=C(C(=O)C(C(=O)OC)C(C)C2)C1c1cccc(OCC)c1 (centres undefined) | 908 s |
| COCCN1C(=O)CCc2cc(NS(=O)(=O)c3ccccc3)ccc21 | 716 s |
| COc1cccc(CNC(=O)CN2CCc3[nH]c4c(OC)ccc(Cl)c4c(=O)c3C2)c1 | 618 s |
| O=C(Cn1cnc2ccccc2c1=O)N[C@@H](Cc1ccccc1)C(=O)O | 671 s |
| COc1ccc(OC)c(S(=O)(=O)N2[C@H]3CC[C@@H]2c2cnc(-c4ccccc4)nc2C3)c1 | 1020 s |

| Structure (SMILES) | RP-LC retention time |
| --- | --- |
| CCc1ccc(NC(=O)N2CCC(n3c(-c4ccco4)nc4cccnc43)C2)cc1 (centres undefined) | 816 s |
| Cc1ccc(NC(=O)c2cc(C(C)C)n(C3CCS(=O)(=O)C3)n2)cc1C (centres undefined) | 949 s |
| CSc1cccc(NC(=O)Cn2nc3n(c2=O)CCCCC3)c1 | 707 s |
| CSc1ccccc1NC(=O)Cc1csc(NC(=O)c2ncccn2)n1 | 657 s |
| CCOC(=O)C1CCN(C(=O)C2CCCN(S(=O)(=O)c3ccc(OC)c(Cl)c3)C2)CC1 (centres undefined) | 940 s |
| Cc1ccccc1NC(=O)Cn1ccc2sccc2c1=O | 701 s |
| CCn1cc(CCNC(=O)Nc2cc(OC)cc(OC)c2)c2cccnc21 | 707 s |
| C=CCN(Cc1nc(-c2cccc(C)c2)no1)C(=O)Nc1ccc(C)cc1 | 1110 s |
| CCc1nn(C)c(=O)c2cc(S(=O)(=O)NC(C)c3ccccc3)cn12 (centres undefined) | 870 s |
| CCCCC(C(=O)O)C(C)CC(=O)Nc1nc(-c2ccccc2)cs1 (centres undefined) | 982 s |
| CCn1c(N2CCC(C(=O)N3CCC(N4CCCCC4)CC3)CC2)cc(=O)n(C)c1=O | 600 s |
| O=C(NCCc1nc(-c2ccccc2)no1)c1sc2cccc(Cl)c2c1Cl | 1200 s |
| O=c1c2cnc3nc(-c4ccc(Cl)cc4)nn3c2ccn1CCO | 716 s |
| Cc1ccccc1CNC(=O)c1nnc(-c2ccc(S(=O)(=O)N(C)C)cc2)o1 | 874 s |
| COc1ccc(OC)c(NC(=O)Cn2nc3c4cc(Cl)ccc4ncn3c2=O)c1 | 740 s |
| COc1cccc2cc(C(=O)Nc3nnc(Cc4ccc(Cl)s4)o3)oc12 | 860 s |
| Cc1sc(C)c(S(=O)(=O)NC2CCCCC2)c1-c1cc(C(F)(F)F)on1 | 1200 s |
| CS(=O)(=O)N1CCC(C(=O)Nc2nnc(SCc3cc(F)ccc3F)s2)CC1 | 762 s |
| COc1ccc(Nc2c(-c3ccccc3)nc3cnc(Br)cn23)cc1OC | 856 s |

| Structure (SMILES) | RP-LC retention time |
| --- | --- |
| CO[C@@H](Cc1ccc(OCCc2nc(-c3ccccc3)oc2C)c2ccsc12)C(=O)O | 1160 s |
| CC1=NS(=O)(=O)N(C)C=C1C(=O)OCc1ccc(C#N)cc1 | 842 s |
| COc1ccc(-c2csc3c(=O)n(CCOc4ccccc4)cnc23)cc1 | 1060 s |
| CN(C)c1ccc(C(CNC(=O)c2cccs2)N(C)C)cc1 (centres undefined) | 618 s |
| Cc1cc(-c2csc(S(=O)(=O)N(Cc3cccs3)C3CCCC3)c2)on1 | 1190 s |
| COc1ccc(NC(=O)Cn2ncc3c(c2=O)N(CC2CC2)C(=O)CS3)cc1Cl | 808 s |
| COc1ccc(C2Cn3nnc(-c4nc(-c5ccc(OC)c(F)c5)no4)c3CO2)cc1 (centres undefined) | 1040 s |
| O=C(C1CC1)N1CCC(c2noc(-c3cnccn3)n2)C1 (centres undefined) | 621 s |
| CN(CCNC(=O)CN(c1ccccc1)S(=O)(=O)N(C)C)Cc1ccccc1 | 656 s |
| O=C(c1ccccc1C(F)(F)F)N1CCC2(C1)C(=O)Nc1ccccc12 (centres undefined) | 743 s |
| C=CCNC(=O)c1cn(-c2ccc(-c3nc(C(C)(C)C)no3)cn2)cn1 | 883 s |
| COc1ccc(OC)c(CNC(=O)c2cn3cc(C)ccc3n2)c1 | 694 s |
| O=C(NCCc1ccccc1)C1CC(=O)N(CCc2c[nH]c3ccc(Cl)cc23)C1 (centres undefined) | 809 s |
| Cc1csc(-c2ccc(CNC(=O)Cc3cccc(F)c3)cc2)n1 | 848 s |
| Cc1cnc(C)n1C1CCN(S(=O)(=O)c2ccc(C#N)cc2)CC1 | 626 s |
| CN(C)c1cccc(C(=O)NCC(=O)Nc2nc3ccccc3[nH]2)c1 | 594 s |
| CC(C)CCNCC(O)Cn1c2ccc(Br)cc2c2cc(Br)ccc21 (centres undefined) | 906 s |
| Cc1ccn2c(NC(=O)C(C)(C)Oc3ccc(Cl)cc3)c(-c3ccccc3)nc2c1 | 804 s |
